Results as given in patent US20080234233A1, “MEDICAMENT FOR TREATMENT OF NEURODEGENERATIVE DISEASES” (INSTITUTE OF MEDICINAL MOLECULAR DESIGN INC., priority 2002, published 2008).

Legend:
GSK3 β = assay: Amount of phosphorylated GSK3 β in MOLT-4F cells; assay type: cell-based, human; settings: 2 μM, 24 hours
Description: When Compound No. 4 (2 μM) of the present invention was allowed to act on MOLT-4F cells(human leukemia cells) for 24 hours, the amount of phosphorylated GSK3 β, produced by phosphorylation of GSK3 β, was increased, and it is well presumed that similar phenomena may possibly occur in nerve cells. Since GSK3 β is inactivated by the phosphorylation, it is considered that the increase of the amount of the phosphorylated GSK3 β substantially means the inhibition of GSK3 β. […] (Refer to “The Biochemical Journal”, (England), 2001, Vol. 359, No. PT1, p. 1-16; “Current Opinion in Neurobiology”, (England), 2002, Vol. 12, No. 3, p. 275-278; “Trends in Molecular Medicine”, (England), 2002, Vol. 8, No. 3, p. 126-132; “Proceedings of The National Academy of Sciences of The United States of America”, (USA), 1996, Vol. 93, No. 7, p. 2719-2723; “The Journal of Biological Chemistry”, (USA), 2002, Vol. 277, No. 44, p. 42060-42065; “Proceedings of The National Academy of Sciences of The United States of America”, (USA), 2003, Vol. 100, No. 2, p. 721-726; “Annals of The New York Academy of Sciences”, (USA), 2000, Vol. 920, p. 107-114; “Nature”, (England), 2003, Vol. 423, No. 6938, p. 435-439; and “Neuron”, (USA), 2003, Vol. 38, No. 4, p. 555-565.)

[1] = test system: rat hippocampus injected with human β amyloid; assay: Inhibitory activity against hypoplasia of memory formation (LTP), Alzheimer's model by injection of human β amyloid into the rat hippocampus; assay type: in vivo; settings: 30 mg/kg intraperitoneally once a day, FIG. 1
Description: Several places of rat hippocampus were infused with a 1:1 mixture of A β 1-40 and A β 1-43 which are human β amyloids (Aβ) for 7 continuous days by the microinjection method. On the 8th day, bipolar stimulating electrodes were fixed to the perforate pathway, and recording electrodes were fixed to the stratum moleculare of the hippocampus dentate gyrus under urethane anesthesia. A mono-synaptic reaction was searched by about 14 to 20 mV of test pulse from the stimulating electrode. Long-term potentiations (LTP: neurophysiological memory model phenomena) were compared by the test simulation and tetanic stimulation, and the existence of hypoplasia of memory formation was verified which is a problem in Alzheimer's disease. Three days before the start of the injection of β amyloid, saline for the control group and the test compound (30 mg/kg) for the dosing group were administered intraperitoneally once a day, and a comparison of LTP was carried out.

NF-κ B activation = assay: Inhibitory activity of NF-κB activation, luciferase reporter assay under TNF-α stimulation in HepG2; assay type: cell-based, human; settings: HepG2, TNF-α 40 ng/ml, 4 hours; for inhibition at 1 µg/mL / inhibition at 10 µg/mL: Homo sapiens, read-out: Inhibitory rate against NF-κB activation (%)
In short: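 HepG2 cells transiently transfected with luciferase reporter carrying five tandem NF-κB binding sites, then stimulated with TNF-α (40 ng/ml) ± compound for 4 hours. Luminescent luciferase activity measured; inhibition expressed relative to activity without compound.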

AP-1 activation [2] = assay: Inhibition against AP-1 activation by TNF α stimulation, luciferase reporter assay in HeLa; assay type: cell-based, human; settings: TNF-α 40 ng/ml, 4 hours
Description: Measurement of Inhibition Against AP-1 Activation by TNF α Stimulation
Using a transfection reagent(Effectene; QIAGEN), the human uterine cancer cell strain HeLa was transfected with a plasmid(pAP-1-Luc Reporter Plasmid: […]) integrated with an oligonucleotide having seven tandem copies of AP-1 binding sequences(TGACTAA) on an upstream region of firefly luciferase gene(Luc) according to the QIAGEN's protocol, and the cells were incubated for 6 to 24 hours. After addition of TNF-α (40 ng/ml) in the presence or absence of a test compound, the cells were incubated for 4 hours, and intracellular luciferase activity was measured by using PicaGene LT(TOYO INK MFG Co., Ltd.) and a chemical luminescence measurement apparatus([…]luor Plus; TECAN). The inhibitory ratio was measured as a ratio relative to the value of the luciferase activity in the absence of the test compound.

AP-1 activation [3] = assay: Inhibition against AP-1 activation by forced expression of MEKK-1, luciferase reporter assay in HepG2; assay type: cell-based, human; settings: HepG2, MEKK-1 forced expression, 24 hours
Description: Measurement of Inhibition Against AP-1 Activation by Forced Expression of MEKK-1
Using a transfection reagent (Effectene; QIAGEN), the human hepatoma cell strain HepG2 was cotransfected with a plasmid (pAP-1-Luc Reporter Plasmid: […]) integrated with an oligonucleotide having seven tandem copies of AP-1 binding sequences (TGACTAA) on an upstream region of firefly luciferase gene (Luc) and the MEKK-1 expression plasmid (pFCMEKK: […]) according to the QIAGEN's protocol, and the cells were incubated for 20 to 24 hours. Then the cells were incubated in the presence or absence of a test compound for 24 hours, and then intracellular luciferase activity was measured by using PicaGene LT (TOYO INK MFG Co., Ltd.) and a chemical luminescence measurement apparatus ([…]luor Plus; TECAN). The inhibitory ratio was measured as a ratio relative to the value of the luciferase activity in the absence of the test compound.

SMILES	Inhibitory rate against NF-κB activation (%) (NF-κ B activation; Drug concentration at 1 μg/mL)	Inhibitory rate against NF-κB activation (%) (NF-κ B activation; Drug concentration at 10 μg/mL)	melting point [°C]	inhibition at 1 µg/mL (NF-κ B activation; Drug concentration at 1 μg/mL) [%]	inhibition at 10 µg/mL (NF-κ B activation; Drug concentration at 10 μg/mL) [%]	Inhibitory ratio of AP-1 activation(%) (AP-1 activation [3]; Drug concentration 1 μM)	Inhibitory ratio of AP-1 activation(%) (AP-1 activation [3]; Drug concentration 1 μg/mL)	also measured
O=C(Nc1cc(C(F)(F)F)cc(C(F)(F)F)c1)c1cc(Cl)ccc1O [compound 4, N-[3,5-bis(trifluoromethylphenyl)]-5-chloro-2-hydroxybenzamide]	95.7	97.5						amount of phosphorylated GSK3 β (GSK3 β): increased; inhibitory activity against hypoplasia of memory (LTP) [1]: inhibitory activity against hypoplasia of memory; Inhibitory rate against AP-1 activation(%) (AP-1 activation [2]; Drug concentration at 1 μg/mL): 42.4%; Inhibitory rate against AP-1 activation(%) (AP-1 activation [2]; Drug concentration at 10 μg/mL): 89.1%
O=C(Nc1cc(C(F)(F)F)cc(C(F)(F)F)c1)c1cc(C(=O)N2CCC(Cc3ccccc3)CC2)ccc1O [compound 40, N-[3,5-Bis(trifluoromethyl)phenyl]-2-hydroxy-5-(4-benzylpiperidine-1-carbonyl)-benzamide]			179 to 180	44.9	96			
CC(=O)Nc1cc(O)c(C(=O)Nc2cc(C(F)(F)F)cc(C(F)(F)F)c2)cc1Cl [compound 50, 4-Acetylamino-N-[3,5-bis(trifluoromethyl)phenyl]-5-chloro-2-hydoxybenzamide]	69.9	96.0				90.7	99.4	
CC(=O)Oc1ccccc1C(=O)Nc1cc(Cl)cc(Cl)c1 [compound 120, 2-acetoxy-N-(3,5-dichlorophenyl)benzamide]			218 to 219	88.6	97.5			
CCc1sc(NC(=O)c2cc(Br)ccc2O)nc1C(C)(C)C [compound 195, 5-Bromo-N-{4-[(1,1-dimethyl)ethyl]-5-ethylthiazol-2-yl}-2-hydroxybenzamide]				90.5	98.1	91.2	95.5	
CC(C)(C)C(=O)c1sc(NC(=O)c2cc(Cl)ccc2O)nc1C(C)(C)C [compound 199, 5-Chloro-N-{4-[(1,1-dimethyl)ethyl]-5-[(2,2-dimethyl)propionyl]thiazol-2-yl}-2-hydroxybenzamide]				96.4	98.4		70.6	
